US20230088717A1, “NEW IMMUNOSTIMULATORS AND USE THEREOF IN IMMUNOTHERAPY” (NANTES UNIVERSITÉ, priority 2020, published 2023)
Like-named read-outs stand apart in the source and are kept apart here.

Legend:
iNKT cells in PBMC = experiment: iNKT phenotyping: expansion of iNKT cells in PBMC, CD8+/CD4+; format: cell-based, human; conditions: PBMC cultured ten days with high dose of glycolipid (FIG. 8)
Protocol: Comparative study was run to establish either a CD4 or CD8 orientation of the immune response can be induced using 6-PEG3-NH2-GalCer 2a vs KRN7000 (see FIG. 8). PBMC were cultured in presence of an high dose of KRN or 6-PEG3-NH2-GalCer 2a, after ten days, phenotype of iNKTs was analysed by Flow Cytometry.

iNKT cells [1] = experiment: iNKT cell activation: cytokine secretion after co-culture with glycolipid-loaded non-transfected (non-CD1d) tumor cells; format: cell-based, human; conditions: for secretion of cytokines: non-CD1d Hela and HEK293 cells
Protocol: (§1) Classically, CD1d expressing cells are incubated overnight in presence or in the absence of the compound to be assessed, allowing loading on the CD1d molecule. Then, CD1d cells are co-incubated with iNKTs. Six hours of co-culture are sufficient to be able to detect most of the cytokine release (such as IFN-γ, IL-13 and/or IL-2) in the supernatant. Various time of incubation, up to 48H, can be performed depending of the kinetic of some late cytokines (such as IL-10). The quantity or concentration of at least one cytokine is thus measured in the supernatant after an incubation time of from 6 hours to 48 hours. An increased quantity or concentration of at least one cytokine in the presence of the assessed compound by comparison to in its absence means that said compound is a iKNT stimulator.
(§2) To analyse ability of 6-PEG3-NHR-GalCer 2 and 6-Mal-PEGn-GalCer 3 to activate iNKTs, several types of presenting cells were used, such as HEK293 or HeLa cells transfected to express CD1d molecule on their membrane. Non-transfected cells were also used as negative control “at first glance” since presentation of glycolipids to iNKT cells is known to be dependent on CD1d.
(§3) These cells were then used as antigen presenting cells (APC) to compare the iNKT cell activation potency of the canonical α-GalCer (KRN7000) ligand to that of the analogue 6″-modified with an aminoPEG linking arm 6-PEG3-NH2-GalCer 2a. APC were loaded with glycolipids after co-incubation at various concentrations overnight. Next day, cells were washed and co-cultured with iNKTs (2 APC for 1 iNKT). After 6 hours, supernatants were collected, and cytokines secretions (IFN-γ and IL-2 for Th1 panel and IL-13 for Th2 panel) was measured by ELISA (FIGS. 2 and 3)
To confirm this discovery, various other colon, lung, embryonic kidney, cervical cancer cells lines were screened by RT-PCR to define those that express small levels of CD1d and to confirm their ability to self-present the new potent iNKT agonist (see Table 6).
(§4) 6-PEG3-NHR-GalCer analogues of 6-PEG3-NH2-GalCer 2a were evaluated on transfected CD1d and non-CD1d Hela and HEK293 cells for secretion of INF-γ and IL13 stimulation (see FIGS. 10 and 11).

iNKT cells [2] = experiment: iNKT cell activation: cytokine secretion (ELISA) after co-culture with glycolipid-loaded CD1d-transfected HEK293 or HeLa cells; format: cell-based, human; conditions: for LogEC50 IFN-γ / LogEC50 IL-2 / LogEC50 IL-13 / EC50: 6 h co-culture; for Delta LogEC50 IFN-γ / Delta LogEC50 IL-2 / Delta LogEC50 IL-13: KRN7000 vs 6-PEG3-NH2-GalCer; for EC50: Homo sapiens, iNKT, 6 h
Protocol: as §1, §2, §3, §4

HeLa-CD1d cells = experiment: Cytotoxicity induced by iNKTs on HeLa-CD1d cells (flow cytometry); format: cell-based; conditions: HeLa CD1d transfected cells, 24 hours co-culture (FIG. 7)
Protocol: Moreover, 6-PEG3-NH2-GalCer 2a is not only one of a strongest activator of iNKTs cells known for cytokine secretions, but that he is also able to induce a better iNKT cytotoxicity effect than KRN7000. iNKT were co-cultured with HeLa CD1 d transfected cells for 24 hours in presence of various concentration of glycolipids, then, mortality of target HeLa-CD1d cells was analysed by Flow Cytometry.

HeLa-CD1d spheroid = experiment: Cytotoxicity induced by iNKTs on HeLa-CD1d 3D spheroid model; format: cell-based; conditions: 72 hours, preliminary data (FIG. 9B)
CD1d = molecular target: T1, CD1d (Homo sapiens, UniProt P15813); experiment: CD1d-dependency of iNKT activation: cytokine secretion in presence of anti-CD1d antibody; format: cell-based
T1 construct: endogenous in cells; host or cells: HEK293 (non-transfected) and HEK293-CD1d (transfected to express CD1d)
Protocol: It was then checked whether iNKT cells activation might be provided by a very low expression of CD1d on the proper non-CD1d tumor cells that cannot be detected by flow cytometry. To this aim, the same activation experiments were performed but in presence of an anti-CD1d antibody. HEK293 cells and HEK293-CD1d were loaded with 6-PEG3-NH2-GalCer a2 as described previously. Before co-culture with iNKTs cells, loaded presenting cells were co-incubated with the anti-CD1d antibody for 1 hours, iNKTs were added directly in suspension and co-cultured 6 hours before cytokine analysis in supernatant (ELISA). If activation signal was provided by presentation of the modified glycolipid through CD1d, it was expected to observe a blockage, or at least a decrease, of cytokine secretion after blocking the signal with the anti-CD1d antibody.

[3] = HEK293 (embryonic kidney), non transfected, as presenting cells
[4] = HeLa (cervix), non transfected, as presenting cells
[5] = Meso13 (mesotheliome) as presenting cells
[6] = Meso34 (mesotheliome) as presenting cells
[7] = Meso225 (mesotheliome) as presenting cells
[8] = SW1116 (colon) as presenting cells

T1 sequence (P15813 20-335): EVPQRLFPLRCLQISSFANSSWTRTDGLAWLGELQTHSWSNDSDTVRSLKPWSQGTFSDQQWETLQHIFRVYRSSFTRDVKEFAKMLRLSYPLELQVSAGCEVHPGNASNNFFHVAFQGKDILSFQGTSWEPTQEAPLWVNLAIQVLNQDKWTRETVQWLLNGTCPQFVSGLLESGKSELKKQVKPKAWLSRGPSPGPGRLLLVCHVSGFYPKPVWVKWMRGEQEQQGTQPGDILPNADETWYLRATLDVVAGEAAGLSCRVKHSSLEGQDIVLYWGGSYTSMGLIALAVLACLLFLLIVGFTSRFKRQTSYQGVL
T1 sequence (P61769 21-119 partner): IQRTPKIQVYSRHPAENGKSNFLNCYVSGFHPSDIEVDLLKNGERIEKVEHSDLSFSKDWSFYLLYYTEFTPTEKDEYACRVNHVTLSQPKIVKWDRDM

CCCCCCCCCCCCCCCCCCCCCCCCCC(=O)N[C@@H](CO[C@H]1O[C@H](CO)[C@H](O)[C@H](O)[C@H]1O)[C@H](O)[C@H](O)CCCCCCCCCCCCCC [KRN7000, reference compound]
CD8+ / CD4+ orientation of the iNKT response (iNKT cells in PBMC): seems to not distinguish CD4+ to CD8+ cells stimulation | IFN-γ secretion 10^−7M (iNKT cells [1]; [3]): Low | IFN-γ secretion 10^−7M (iNKT cells [1]; [4]): Low | IFN-γ secretion 10^−7M (iNKT cells [1]; [5]): Low | IFN-γ secretion 10^−7M (iNKT cells [1]; [6]): Low | IFN-γ secretion 10^−7M (iNKT cells [1]; [7]): Low | IFN-γ secretion 10^−7M (iNKT cells [1]; [8]): Low | secretion of cytokines (iNKT cells [1]): very poorly active or ineffective | LogEC50 IFN-γ (iNKT cells [2]; HEK293-CD1d presenting cells): −8.447 | LogEC50 IL-2 (iNKT cells [2]; HEK293-CD1d presenting cells): −8.680 | LogEC50 IL-13 (iNKT cells [2]; HEK293-CD1d presenting cells): −7.956 | LogEC50 IFN-γ (iNKT cells [2]; HeLa-CD1d presenting cells): −8.653 | LogEC50 IL-2 (iNKT cells [2]; HeLa-CD1d presenting cells): −9.315 | LogEC50 IL-13 (iNKT cells [2]; HeLa-CD1d presenting cells): −7.841

CCCCCCCCCCCCCCCCCCCCCCCCCC(=O)N[C@@H](CO[C@H]1OC(COC(=O)NCCOCCOCCOCCN)[C@H](O)C(O)[C@@H]1O)[C@H](O)[C@H](O)CCCCCCCCCCCCCC (some centres unmarked) [6-PEG3-NH2-GalCer 2a]
efficiency to induce iNKT cytotoxicity relative to KRN7000 (HeLa-CD1d cells): ≥ 10 fold | CD8+ / CD4+ orientation of the iNKT response (iNKT cells in PBMC): induces a higher cytotoxic CD8+ response from PBMC cells than KRN7000 | IFN-γ secretion 10^−7M (iNKT cells [1]; HCT116 (colon) as presenting cells): Low | IFN-γ secretion 10^−7M (iNKT cells [1]; [3]): High | IFN-γ secretion 10^−7M (iNKT cells [1]; [4]): High | IFN-γ secretion 10^−7M (iNKT cells [1]; [5]): High | IFN-γ secretion 10^−7M (iNKT cells [1]; [6]): High | IFN-γ secretion 10^−7M (iNKT cells [1]; [7]): High | IFN-γ secretion 10^−7M (iNKT cells [1]; [8]): High | secretion of cytokines (iNKT cells [1]): significant dose response secretion of cytokines | induction of cell death compared with KRN7000 (HeLa-CD1d spheroid): more efficient than KRN7000 to induce cell death | inhibition of cytokine (IL-2) secretion by anti-CD1d antibody (CD1d; CD1d-HEK293 positive cells (FIG. 5A)): only an incomplete inhibition | inhibition of cytokine (IL-2) secretion by anti-CD1d antibody (CD1d; non transfected (non CD1d) HEK293 cells (FIG. 5B)): almost completely eliminated | cytokine secretion / iNKT activation potency relative to KRN7000 (iNKT cells [2]; CD1d-transfected HEK293 / HeLa cells): ~100 fold | Delta LogEC50 IFN-γ (iNKT cells [2]; HEK293-CD1d): 2.333 | Delta LogEC50 IL-2 (iNKT cells [2]; HEK293-CD1d): 1.55 | Delta LogEC50 IL-13 (iNKT cells [2]; HEK293-CD1d): 2.534 | Delta LogEC50 IFN-γ (iNKT cells [2]; HeLa-CD1d): 1.877 | Delta LogEC50 IL-2 (iNKT cells [2]; HeLa-CD1d): 1.495 | Delta LogEC50 IL-13 (iNKT cells [2]; HeLa-CD1d): 2.089 | EC50 (iNKT cells [2]; HEK293-CD1d presenting cells, read-out: LogEC50 IFN-γ (converted)): 0.0166 nM | EC50 (iNKT cells [2]; HEK293-CD1d presenting cells, read-out: LogEC50 IL-2 (converted)): 0.0589 nM | EC50 (iNKT cells [2]; HEK293-CD1d presenting cells, read-out: LogEC50 IL-13 (converted)): 0.0324 nM | EC50 (iNKT cells [2]; HeLa-CD1d presenting cells, read-out: LogEC50 IFN-γ (converted)): 0.0295 nM | EC50 (iNKT cells [2]; HeLa-CD1d presenting cells, read-out: LogEC50 IL-2 (converted)): 0.0155 nM | EC50 (iNKT cells [2]; HeLa-CD1d presenting cells, read-out: LogEC50 IL-13 (converted)): 0.117 nM

CCCCCCCCCCCCCCCCCCCCCCCCCC(=O)N[C@@H](CO[C@H]1OC(COC(=O)NCCOCCOCCOCCNC(=O)CCOCCOCCOCCOCCOCCOCCNC(=O)CCN2C(=O)C=CC2=O)[C@H](O)C(O)[C@@H]1O)[C@H](O)[C@H](O)CCCCCCCCCCCCCC (some centres unmarked) [6-Mal-PEG6-GalCer 3a]
iNKT activation potency (cytokine release) relative to KRN7000 (iNKT cells [2]; general statement, presenting cells not specified at the place): ~10 fold
